33 compounds from ChEMBL document CHEMBL1201862, “PubChem BioAssay data set” (2004) can be followed below.

One may read the AC50 as the midpoint of the concentration-response curve, whichever way the signal moves. What is called IC50 is the concentration at which inhibition is half-maximal. In general, CC50 refers to the concentration at which the toxic effect on the cells reaches its halfway point.

SMILES strings stand for the structures. Calls of active or inactive are those of the source. Rule as the data show it, for most assays here: actives have a measured EC50 and inactives only a lower limit. Where only a bound is given, the exact number is not on record here.

One assay deals with Cytochrome P450 3A4 (Homo sapiens, UniProt P08684). As to conditions: Potency.
For assay [1], the target named is T1, Zinc finger protein mex-5 (Caenorhabditis elegans, UniProt Q9XUB2).
T1 sequence (Q9XUB2 whole entry): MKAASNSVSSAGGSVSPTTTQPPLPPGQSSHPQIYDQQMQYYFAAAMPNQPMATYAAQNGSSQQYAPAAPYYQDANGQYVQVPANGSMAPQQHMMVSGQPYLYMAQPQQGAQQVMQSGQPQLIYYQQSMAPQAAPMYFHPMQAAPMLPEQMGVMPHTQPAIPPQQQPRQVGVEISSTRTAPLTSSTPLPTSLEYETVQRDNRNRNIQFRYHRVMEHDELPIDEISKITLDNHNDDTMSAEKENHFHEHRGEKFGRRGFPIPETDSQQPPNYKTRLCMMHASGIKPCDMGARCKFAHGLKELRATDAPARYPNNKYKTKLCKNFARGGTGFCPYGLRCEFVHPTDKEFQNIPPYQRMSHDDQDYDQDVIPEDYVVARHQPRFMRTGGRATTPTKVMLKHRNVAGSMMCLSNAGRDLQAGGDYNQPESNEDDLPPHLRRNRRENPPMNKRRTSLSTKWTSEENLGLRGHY
Description: potency of MEX-5 RNA-binding blockers – biochemical, C. elegans, fluorescence polarization, dose response (AID 1960). Background: In fluorescence polarisation assays a small probe gives low polarisation when free and higher when bound to something large.

Assay [2] deals with T2, RNA-binding protein pos-1 (Caenorhabditis elegans, UniProt G5EF15).
T2 sequence (G5EF15 whole entry): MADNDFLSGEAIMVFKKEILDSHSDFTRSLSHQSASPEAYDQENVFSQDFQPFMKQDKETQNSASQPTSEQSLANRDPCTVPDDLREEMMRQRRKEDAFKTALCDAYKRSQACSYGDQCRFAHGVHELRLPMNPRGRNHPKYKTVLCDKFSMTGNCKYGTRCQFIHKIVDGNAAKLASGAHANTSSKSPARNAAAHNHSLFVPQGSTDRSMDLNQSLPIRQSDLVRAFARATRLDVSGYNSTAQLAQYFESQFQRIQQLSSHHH
Description: disruptors of C. elegans POS-1 RNA interaction – biochemical, fluorescence polarization, dose response (AID 1964).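 Also: purified POS-1 fused to maltose binding protein made in E. coli; potency of compounds blocking POS-1 binding to fluorescent RNA.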

The next assay has as its target T3, Streptokinase A (Streptococcus pyogenes serotype M1, UniProt P10520).
T3 sequence (P10520 whole entry): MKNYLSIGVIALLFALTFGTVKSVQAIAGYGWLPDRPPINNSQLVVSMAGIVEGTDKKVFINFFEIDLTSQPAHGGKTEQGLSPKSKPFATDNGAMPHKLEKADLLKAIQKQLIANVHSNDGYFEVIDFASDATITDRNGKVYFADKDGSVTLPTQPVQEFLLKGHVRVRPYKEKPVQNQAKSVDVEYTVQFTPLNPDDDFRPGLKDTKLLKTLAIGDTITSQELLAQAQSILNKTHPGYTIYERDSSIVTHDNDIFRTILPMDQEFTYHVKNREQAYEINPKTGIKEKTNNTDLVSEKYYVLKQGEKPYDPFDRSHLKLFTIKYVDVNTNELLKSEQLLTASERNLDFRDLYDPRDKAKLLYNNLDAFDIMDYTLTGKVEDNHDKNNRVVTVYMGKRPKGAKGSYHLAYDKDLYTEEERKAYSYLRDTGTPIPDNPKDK
Kind of assay: viability-normalized secreted streptokinase activity reduction – plasminogen activation absorbance, OD405, dose response (AID 1914).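 Also: secreted streptokinase activity via plasminogen activation per viability signal from cell pellet.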 It is filed as functional, Streptococcus pyogenes M1 GAS.

The subject of assay [3] is Streptococcus sp. 'group A'. Description: Streptococcus pyogenes SK(-)GAS viability under kanamycin – luminescence, BacTiterGlo, confirmation, counter-screen for streptokinase expression inhibitor project, dose response (AID 1900). It is filed as functional, organism-based. A general note: Counterscreens check selectivity or assay interference.
The next assay has as its system Streptococcus. Description: GAS UMAA2166 growth inhibition – luminescence, BacTiterGlo, counter-screen for streptokinase expression inhibitor project, dose response (AID 1915).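 Also: potency for reduction of bacterial viability or growth.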 The class given is functional, organism-based.
The target in assay [4] is T4, Ubiquitin-conjugating enzyme E2 N (Homo sapiens, UniProt P61088).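 Also: Dose-response confirmation in a TR-FRET assay detecting UBC13-driven polyubiquitin chain formation, inhibition measured.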
T4 sequence (P61088 whole entry): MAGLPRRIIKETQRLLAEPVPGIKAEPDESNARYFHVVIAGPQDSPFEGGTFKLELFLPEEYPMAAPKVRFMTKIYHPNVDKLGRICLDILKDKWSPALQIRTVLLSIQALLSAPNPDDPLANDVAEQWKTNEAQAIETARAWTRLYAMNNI
It is filed as functional.

Assay [5] has as its target FAD-linked sulfhydryl oxidase ALR (Homo sapiens, UniProt P55789). Description: ALR-catalysed DTT oxidation blockers – biochemical, H2O2 detection, luminescence, cherry-pick, dose response (AID 493248).
Assay [6] concerns the target T5, Heat shock factor protein 1 (Mus musculus, UniProt P38532).
T5 sequence (P38532 whole entry): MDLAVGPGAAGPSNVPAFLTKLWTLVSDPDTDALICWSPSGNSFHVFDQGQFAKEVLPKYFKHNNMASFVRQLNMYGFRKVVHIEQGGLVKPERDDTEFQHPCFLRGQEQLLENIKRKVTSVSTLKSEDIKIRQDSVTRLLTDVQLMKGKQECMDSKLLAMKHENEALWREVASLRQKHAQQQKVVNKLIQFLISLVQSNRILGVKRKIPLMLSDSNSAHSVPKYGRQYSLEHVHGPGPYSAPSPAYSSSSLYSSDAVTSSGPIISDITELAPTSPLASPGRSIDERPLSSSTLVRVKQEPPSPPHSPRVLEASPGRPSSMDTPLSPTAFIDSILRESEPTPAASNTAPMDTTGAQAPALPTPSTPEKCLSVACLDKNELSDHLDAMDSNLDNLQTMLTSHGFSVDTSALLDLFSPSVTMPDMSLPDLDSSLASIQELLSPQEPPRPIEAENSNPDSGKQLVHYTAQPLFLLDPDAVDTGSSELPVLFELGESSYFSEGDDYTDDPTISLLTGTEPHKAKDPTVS
Description: decrease of HSF1-responsive luciferase luminescence – cell-based, NIH3T3, dose retest, confirmation (AID 2382).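 Also: NIH3T3 fibroblasts with HSF1-driven luciferase reporter stressed by proteasome inhibitor MG132; luminescence from HSF1-driven luciferase expression after 8 hours of MG132 stress.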 The class given is functional.

Assay [7] has as its target T6, Corticotropin-releasing factor receptor 2/Corticotropin-releasing factor-binding protein (Homo sapiens, UniProt P24387+Q13324).
T6 sequence (Q13324 whole entry): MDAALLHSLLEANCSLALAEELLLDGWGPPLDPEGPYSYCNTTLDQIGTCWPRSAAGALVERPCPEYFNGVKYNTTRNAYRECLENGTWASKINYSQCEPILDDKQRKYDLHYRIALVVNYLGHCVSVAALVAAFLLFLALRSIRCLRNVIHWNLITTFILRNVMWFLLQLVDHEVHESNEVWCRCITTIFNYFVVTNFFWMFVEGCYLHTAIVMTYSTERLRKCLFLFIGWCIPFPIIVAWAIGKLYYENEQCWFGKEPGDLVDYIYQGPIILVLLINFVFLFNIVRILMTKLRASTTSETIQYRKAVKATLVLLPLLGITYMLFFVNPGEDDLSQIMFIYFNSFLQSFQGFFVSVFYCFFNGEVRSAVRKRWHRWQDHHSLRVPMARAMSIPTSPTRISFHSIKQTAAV
T6 sequence (P24387 whole entry): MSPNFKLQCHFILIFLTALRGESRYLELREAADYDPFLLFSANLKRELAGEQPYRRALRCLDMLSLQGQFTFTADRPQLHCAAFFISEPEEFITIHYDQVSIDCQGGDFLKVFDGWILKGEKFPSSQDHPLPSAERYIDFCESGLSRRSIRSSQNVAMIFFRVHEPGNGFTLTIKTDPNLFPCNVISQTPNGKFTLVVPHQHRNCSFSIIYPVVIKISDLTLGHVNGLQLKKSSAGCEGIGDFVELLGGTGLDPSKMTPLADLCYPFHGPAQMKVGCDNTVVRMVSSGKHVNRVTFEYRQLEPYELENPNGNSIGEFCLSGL
Kind of assay: activators of CRF receptor 2 with binding protein – uHTS hits, confirmation (AID 602473). It is filed as functional. As to conditions: read-out: EC50_Mean.

Assay [8] can be described thus: THP-1 cell cytotoxicity, dose response, cytotoxicity control for non-replicating M. tuberculosis project (AID 489025). It is filed as functional.

FAD-linked sulfhydryl oxidase ALR, sequence (P55789 whole entry): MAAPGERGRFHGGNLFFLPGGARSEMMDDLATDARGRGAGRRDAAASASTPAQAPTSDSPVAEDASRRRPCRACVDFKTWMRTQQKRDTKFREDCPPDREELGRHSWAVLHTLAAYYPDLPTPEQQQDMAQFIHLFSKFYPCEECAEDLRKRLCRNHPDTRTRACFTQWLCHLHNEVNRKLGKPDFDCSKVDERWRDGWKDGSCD
Cytochrome P450 3A4, sequence (P08684 whole entry): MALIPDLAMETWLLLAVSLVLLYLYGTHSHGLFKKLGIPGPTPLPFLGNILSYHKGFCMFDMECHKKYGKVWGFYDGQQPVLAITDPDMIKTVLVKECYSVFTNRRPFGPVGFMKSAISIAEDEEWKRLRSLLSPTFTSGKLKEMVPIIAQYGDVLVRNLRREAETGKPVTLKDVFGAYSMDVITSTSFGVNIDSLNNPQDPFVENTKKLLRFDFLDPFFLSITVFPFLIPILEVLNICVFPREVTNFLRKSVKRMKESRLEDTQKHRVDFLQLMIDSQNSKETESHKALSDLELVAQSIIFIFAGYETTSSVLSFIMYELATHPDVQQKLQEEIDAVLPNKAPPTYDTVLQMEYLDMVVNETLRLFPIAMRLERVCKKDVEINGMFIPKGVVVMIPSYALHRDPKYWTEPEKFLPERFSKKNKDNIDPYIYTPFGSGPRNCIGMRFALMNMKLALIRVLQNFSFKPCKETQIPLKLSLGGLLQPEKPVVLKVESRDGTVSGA

As for `O=P(N[C@@H](c1ccccc1)[C@@H]1C[C@H]1CO)(c1ccccc1)c1ccccc1`, the AC50 on Cytochrome P450 3A4 is 15.8 µM (inconclusive).
Consider `O=C(C1=C(O)C(=O)N(c2ncccn2)C1c1cccs1)c1ccco1` (stereo not given), for which the EC50 is 31.5 µM (active) in [1] and 39.9 µM (active) in assay [2].
Regarding `Nc1nc(NC(=O)/C=C/c2ccc(F)cc2)nn1-c1ccccc1`, the EC50 on Streptokinase A was > 150 µM (not active); in [3] it was 3.91 µM (active); in the assay with Streptococcus, > 150 µM (not active).
For `CCC(C)[C@@H](N)C(=O)N/N=C/c1cccc2nccnc12` (stereo not given in full), the EC50 in assay [1] and in [2] was > 300 µM (not active) in each case.
For `Cn1nc(N)c2c(-c3ccc(Cl)cc3)c(C#N)c(N)nc21`, the IC50 in [4] is > 20 µM (inactive).
Turning to `CNC(SCc1cc2c(cc1Cl)OCO2)=C1C(=O)N(C)C(=O)N(C)C1=O`, the AC50 in [5] is 1.56 µM (active). Also, the EC50 in assay [6] is > 195 µM (not active).
`C[C@@H]1CC2(OC3C[C@@]4(C)C5=CC[C@H]6C(C)(C)C(O[C@@H]7OC[C@@H](O)[C@H](O)[C@H]7O)CC[C@@]67C[C@@]57CC[C@]4(C)C31)OC(O)C1(C)OC21` (stereo not given in full): on Cytochrome P450 3A4, the AC50 was 5.01 µM (inconclusive).
As for `Cc1ccc(Cn2c(N/N=C/c3ccncc3)nc3c2c(=O)n(C)c(=O)n3C)cc1`, in [5], the AC50 is 1.77 µM (active).
As for `CC1(C)Cc2c(c(N3CCOCC3)nc3sc4c(=O)nc[nH]c4c23)CS1`, the IC50 in [4] was > 20 µM (inactive).
Take `CCCCC(=O)NC(=S)NNC(=O)c1ccc(OC)cc1`: in assay [7], the EC50 is 5.06 µM (active). For the same compound, the IC50 in assay [4] is > 20 µM (inactive).
With `Cc1ccc(S(=O)(=O)NNC(=O)c2ccc3ccccc3n2)cc1`, the concentration at half-maximal activity (AC50) in [5] is 7 µM (active).
Consider `N#CC1=C(N)OC2=C(C(=O)CCC2)C1c1ccc2c(c1)OCO2` (stereo not given), for which the EC50 in [1] and in assay [2] was > 300 µM (not active) in each case.
As for `C=CC[n+]1c(C)csc1Nc1cccc(Br)c1`, the AC50 in assay [5] was 7.54 µM (active).
On the same count and under the same terms, the figure for `Cc1ccc(S(=O)(=O)Nc2c(C(=O)O)[nH]c3ccccc23)cc1C` is 10.8 µM (active).
Still for that read-out and setting: next, `CC(NC(=O)c1ccccc1)C(=O)N/N=C/c1ccc(O)cc1` (stereo not given): 2.14 µM (active).
In the case of `CC(=O)Nc1ccc2c(c1)C(=O)N(c1cccc(C)c1)C2=O`, the IC50 in assay [4] was > 20 µM (inactive).
As for `CC1(OC(=O)c2ccc(Cl)nc2)C(=O)C=C2C=C(c3ccsc3)OC=C2C1=O` (stereo not given), the figures for the EC50 in assay [1] and in assay [2] were 41.9 µM (active) and 54.4 µM (active), respectively.
With `O=c1cc(CO)oc(C(Nc2cccc([N+](=O)[O-])c2)c2ccccn2)c1O` (stereo not given), in assay [4], the IC50 was > 20 µM (inactive).
As to `Cc1cccc(Cn2nc(-n3cccc3)c3c(C)cc(C)nc32)c1`, the results for the EC50 (on Streptokinase A; in assay [3]; in the assay on Streptococcus) were 15.1 µM (active), 12 µM (active) and > 150 µM (not active), respectively.
For `CCC(=O)NC(=S)NNC(=O)c1ccc(OC)cc1`, in assay [4], the IC50 was > 20 µM (inactive).
For `N#C/C(=C(/O)c1cc2ccccc2o1)c1nc2ccccc2s1`, the EC50 in [3] was 9.28 µM (active); in assay [1] it was > 300 µM (not active); in assay [2], > 300 µM (not active); with Streptococcus it was 42.4 µM (active).
Consider `COC(=O)c1cccc(NC(=O)Cc2coc3cc(OC)ccc23)c1`, for which the IC50 in assay [4] was > 20 µM (inactive).
In the case of `O=C(CSc1nnc(CNC(=O)c2ccccc2)o1)NCCc1ccccc1`, the EC50 (at Streptokinase A; in [3]; with Streptococcus) was > 150 µM (not active) each time.
`COC(=O)C1=C(C)N(CC2CC2)C(NCc2cccc(Cl)c2)=N[C@H]1c1ccccc1`: in assay [8], the CC50 is 22.5 µM (active).
Consider `COc1cc(-c2coc3cc(OCc4ccccc4)c(OC)c(O)c3c2=O)cc(O)c1OC` [IRIGENIN, 7-BENZYL ETHER], for which, on Cytochrome P450 3A4, the AC50 is 15.8 µM (inconclusive).
The same measure, in the same setting: next, `CCCCNc1nc(C)nc2c1nc(-c1ccccc1)n2CCCN(CC)CC`: 25.1 µM (inconclusive); `CC(=O)OC1C2C(OC(=O)Cc3ccccc3)C(C)CC2(OC(C)=O)C(=O)/C(C)=C/C2C(CC[C@@]13CO3)C2(C)C` (stereo not given in full): 3.98 µM (inconclusive).
Still for that read-out and setting: next, `COC1=CC(=O)C(O)=C/C1=C\C=C\c1ccccc1` [OBTUSAQUINONE]: 25.1 µM (inconclusive); `CCN(CC)CCn1c(-c2ccccc2)nc2c(NC3CCCCC3)nc(C)nc21`: 15.8 µM (inconclusive); `COC(=O)CNC(=O)C1(C)C=CC2(CCCCC2)N1C(C)=O` (stereo not given): 25.1 µM (inconclusive).
For the compound `C=CCn1c(COc2ccccc2)nnc1SCC(=O)N/N=C/c1cc(Cl)ccc1O`, the EC50 at Streptokinase A was > 150 µM (not active); in assay [3] it was 4.37 µM (active); in the assay on Streptococcus, 48.1 µM (active).
`CCN1/C(=C/C(C)=O)Sc2ccc(OC)cc21`: the AC50 at Cytochrome P450 3A4 was 25.1 µM (inconclusive).
For `Nc1cc(Cl)c([N+](=O)[O-])cc1O`, the AC50 on Cytochrome P450 3A4 is 31.6 µM (inconclusive).
